Test results taken from ChEMBL document CHEMBL5321272 (J Med Chem, 2023).
Calls of active or inactive are those of the source. No cut-off for these calls is given here.

Experiments:
[1] = molecular target: Receptor-type tyrosine-protein kinase FLT3 (Homo sapiens, UniProt P36888); assay: Inhibition of wild type FLT3 (unknown origin) using peptide substrate TK-S and ATP as substrate incubated for 1 hr by HTRF assay
hERG (KCNH2) = hERG (KCNH2) (Homo sapiens, UniProt Q12809); assay: Inhibition of hERG expressed in HEK293 cells at 20 uM by whole cell patch clamp analysis; type: toxicity, cell-based; conditions: HEK293 cells expressing hERG
[2] = molecular target: Mast/stem cell growth factor receptor Kit (Homo sapiens, UniProt P10721); assay: Inhibition of c-KIT (unknown origin) using peptide substrate TK-S and ATP as substrate incubated for 1 hr by HTRF assay; type: toxicity
[3] = Selectivity ratio of IC50 for inhibition of c-KIT (unknown origin) to IC50 for inhibition of FLT3 D835Y mutant (unknown origin)
BaF3 = assay: Antiproliferative activity against mouse BaF3 cells harboring FLT3 D835V mutant assessed as reduction in cell viability incubated for 72 hrs by CellTiter 96 Aqueous One Solution Cell Proliferation Assay; type: functional, cell-based
[4] = Tmax in ICR mouse at 10 mg/kg, po; type: ADME, organism-based; conditions: in vivo
[5] = Cmax in ICR mouse at 10 mg/kg, po; type: ADME, organism-based; set-up: dose 10 mg/kg, route po; conditions: in vivo
[6] = AUC (last) in ICR mouse at 10 mg/kg, po; type: ADME, organism-based; set-up: dose 10 mg/kg, route po; conditions: in vivo
[7] = AUC (infinity) in ICR mouse at 10 mg/kg, po; type: ADME, organism-based; set-up: dose 10 mg/kg, route po; conditions: in vivo
[8] = MRT (infinity) in ICR mouse at 10 mg/kg, po; type: ADME, organism-based; conditions: in vivo
[9] = molecular target: Ribosomal protein S6 kinase beta-1 (Homo sapiens, UniProt P23443); assay: Inhibition of P70S6K (unknown origin) by HTRF assay
[10] = molecular target: Casein kinase I isoform alpha (Homo sapiens, UniProt P48729); assay: Inhibition of CK1 alpha (unknown origin) by HTRF assay
[11] = Selectivity ratio of IC50 for EPHA1 (unknown origin) to IC50 for FLT3-ITD mutant (unknown origin)
[12] = Selectivity ratio of IC50 for IGF1R (unknown origin) to IC50 for FLT3-ITD mutant (unknown origin)
[13] = Selectivity ratio of IC50 for LYN (unknown origin) to IC50 for FLT3-ITD mutant (unknown origin)
[14] = Selectivity ratio of IC50 for TEC (unknown origin) to IC50 for FLT3-ITD mutant (unknown origin)
[15] = Selectivity ratio of IC50 for EGFR (unknown origin) to IC50 for FLT3-ITD mutant (unknown origin)
[16] = Selectivity ratio of IC50 for PKA (unknown origin) to IC50 for FLT3-ITD mutant (unknown origin)
[17] = Selectivity ratio of IC50 for Aurora kinase A (unknown origin) to IC50 for FLT3-ITD mutant (unknown origin)
[18] = Selectivity ratio of IC50 for CDK2 (unknown origin) to IC50 for FLT3-ITD mutant (unknown origin)
[19] = Selectivity ratio of IC50 for ALK (unknown origin) to IC50 for FLT3-ITD mutant (unknown origin)
[20] = Selectivity ratio of IC50 for CK1alpha (unknown origin) to IC50 for FLT3-ITD mutant (unknown origin)
[21] = Selectivity ratio of IC50 for ASK1 (unknown origin) to IC50 for FLT3-ITD mutant (unknown origin)
JeKo-1 = assay: Antiproliferative activity against human JeKo-1 cells assessed as reduction in cell viability incubated for 72 hrs by CellTiter 96 Aqueous One Solution Cell Proliferation Assay; type: functional, cell-based; conditions: JeKo-1, 72 h
[22] = molecular target: Receptor-type tyrosine-protein kinase FLT3 (Homo sapiens) (UniProt P36888); assay: Inhibition of FLT3 in human MV4-11 cells assessed as inhibition of FLT3 phosphorylation measured after 90 mins by western blot analysis; type: cell-based; conditions: dose 20-100 nM
[23] = molecular target: Receptor-type tyrosine-protein kinase FLT3 (Homo sapiens) (UniProt P36888); assay: Inhibition of FLT3 in human MV4-11 cells assessed as inhibition of STAT5 phosphorylation at Tyr694 residue measured after 90 mins by western blot analysis; type: cell-based; conditions: dose 20-100 nM
[24] = molecular target: Receptor-type tyrosine-protein kinase FLT3 (Homo sapiens) (UniProt P36888); assay: Inhibition of FLT3 in human MV4-11 cells assessed as inhibition of AKT phosphorylation at Ser473 residue measured after 90 mins by western blot analysis; type: cell-based; conditions: dose 20-100 nM
[25] = molecular target: Receptor-type tyrosine-protein kinase FLT3 (Homo sapiens) (UniProt P36888); assay: Inhibition of FLT3 in human MV4-11 cells assessed as inhibition of ERK phosphorylation at Tyr204 residue measured after 90 mins by western blot analysis; type: cell-based; conditions: dose 20-100 nM
[26] = molecular target: T1, Serine/threonine-protein kinase Chk1 (Homo sapiens) (UniProt O14757); assay: Inhibition of CHK1 in human MV4-11 cells assessed as increase in CHK1 phosphorylation at Ser345 residue at 50 to 200 nM measured after 90 mins by western blot analysis; type: cell-based; conditions: dose 50-200 nM
T1 sequence (whole entry): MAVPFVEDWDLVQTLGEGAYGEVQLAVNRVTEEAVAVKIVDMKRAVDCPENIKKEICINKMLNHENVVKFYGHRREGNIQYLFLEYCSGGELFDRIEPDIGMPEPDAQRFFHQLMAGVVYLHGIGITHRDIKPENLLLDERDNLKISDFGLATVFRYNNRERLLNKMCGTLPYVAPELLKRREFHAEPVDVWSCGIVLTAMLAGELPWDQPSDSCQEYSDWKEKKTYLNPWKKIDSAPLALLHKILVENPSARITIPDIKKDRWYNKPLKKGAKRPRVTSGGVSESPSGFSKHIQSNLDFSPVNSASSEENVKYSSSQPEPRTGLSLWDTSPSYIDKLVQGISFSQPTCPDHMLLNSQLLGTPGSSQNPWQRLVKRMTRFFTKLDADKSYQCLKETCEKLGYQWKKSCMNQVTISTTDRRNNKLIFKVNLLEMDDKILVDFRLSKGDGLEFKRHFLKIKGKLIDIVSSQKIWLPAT

MV4-11 = assay: Antitumor activity against human MV4-11 cells xenografted in nu/nu mouse assessed as inhibition of tumor growth administered orally qd for 22 days; type: functional; conditions: dose 1-3 mg/kg, route po, time 22.0 day
MOLM-13 = assay: Antitumor activity against human MOLM-13 cells xenografted in NSG mouse assessed as prolongation of animal's survival at 15 mg/kg, po qd for 26 days; type: functional, organism-based; conditions: time 26.0 day
[27] = Toxicity against NSG mouse xenografted with human MOLM-13 cells assessed as body weight loss at 15 to 30 mg/kg, po qd for 26 days; type: organism-based; conditions: in vivo, 624 h, dose 15-30 mg/kg, time 26 day
[28] = Acute toxicity in ICR mouse assessed as animal's death at 300 mg/kg, ig and measured for 7 days; type: organism-based; conditions: in vivo, po, 168 h, time 7 day
[29] = Acute toxicity in ICR mouse assessed as morphological changes in liver at 300 mg/kg, ig and measured for 7 days by Hematoxylin-Eosin staining based analysis; type: organism-based; conditions: in vivo, po, 168 h, time 7 day
[30] = Acute toxicity in ICR mouse assessed as morphological changes in kidney at 300 mg/kg, ig and measured for 7 days by Hematoxylin-Eosin staining based analysis; type: organism-based; conditions: in vivo, po, 168 h, time 7 day

Receptor-type tyrosine-protein kinase FLT3 (Homo sapiens), sequence (P36888 whole entry): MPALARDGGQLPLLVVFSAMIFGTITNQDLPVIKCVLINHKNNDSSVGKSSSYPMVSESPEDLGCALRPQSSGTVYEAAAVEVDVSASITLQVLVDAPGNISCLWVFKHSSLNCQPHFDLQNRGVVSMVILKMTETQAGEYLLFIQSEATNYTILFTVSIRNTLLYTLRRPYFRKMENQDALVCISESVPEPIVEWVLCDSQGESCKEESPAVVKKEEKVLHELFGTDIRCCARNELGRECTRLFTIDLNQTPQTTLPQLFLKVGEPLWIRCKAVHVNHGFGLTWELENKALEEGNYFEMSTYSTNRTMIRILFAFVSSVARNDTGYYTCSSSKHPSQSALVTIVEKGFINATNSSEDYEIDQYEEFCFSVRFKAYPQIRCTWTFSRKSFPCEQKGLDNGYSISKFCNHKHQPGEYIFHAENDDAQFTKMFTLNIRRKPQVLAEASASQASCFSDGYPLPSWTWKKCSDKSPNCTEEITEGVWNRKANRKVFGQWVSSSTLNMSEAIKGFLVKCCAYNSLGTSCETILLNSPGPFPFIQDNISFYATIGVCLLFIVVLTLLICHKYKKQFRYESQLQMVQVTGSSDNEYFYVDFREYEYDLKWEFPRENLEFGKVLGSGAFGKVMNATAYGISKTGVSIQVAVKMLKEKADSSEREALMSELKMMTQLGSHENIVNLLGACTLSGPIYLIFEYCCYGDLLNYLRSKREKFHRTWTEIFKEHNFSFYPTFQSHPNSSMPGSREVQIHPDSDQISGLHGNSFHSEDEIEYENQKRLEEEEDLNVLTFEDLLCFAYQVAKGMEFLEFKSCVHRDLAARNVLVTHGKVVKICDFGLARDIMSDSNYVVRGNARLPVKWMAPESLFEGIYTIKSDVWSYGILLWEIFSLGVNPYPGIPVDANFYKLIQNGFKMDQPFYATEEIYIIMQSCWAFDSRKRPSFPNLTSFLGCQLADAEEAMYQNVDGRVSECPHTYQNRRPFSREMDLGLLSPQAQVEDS
Casein kinase I isoform alpha, sequence (P48729 whole entry, canonical isoform): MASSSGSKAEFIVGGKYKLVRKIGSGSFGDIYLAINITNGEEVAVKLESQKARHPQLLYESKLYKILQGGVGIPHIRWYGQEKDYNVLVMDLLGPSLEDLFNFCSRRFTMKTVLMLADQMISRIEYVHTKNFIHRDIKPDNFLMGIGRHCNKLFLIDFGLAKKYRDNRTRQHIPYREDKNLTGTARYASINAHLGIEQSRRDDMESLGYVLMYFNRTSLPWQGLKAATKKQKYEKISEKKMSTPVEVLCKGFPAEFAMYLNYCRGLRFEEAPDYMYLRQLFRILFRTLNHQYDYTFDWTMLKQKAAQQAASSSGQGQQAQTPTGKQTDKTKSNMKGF
hERG (KCNH2), sequence (Q12809 whole entry): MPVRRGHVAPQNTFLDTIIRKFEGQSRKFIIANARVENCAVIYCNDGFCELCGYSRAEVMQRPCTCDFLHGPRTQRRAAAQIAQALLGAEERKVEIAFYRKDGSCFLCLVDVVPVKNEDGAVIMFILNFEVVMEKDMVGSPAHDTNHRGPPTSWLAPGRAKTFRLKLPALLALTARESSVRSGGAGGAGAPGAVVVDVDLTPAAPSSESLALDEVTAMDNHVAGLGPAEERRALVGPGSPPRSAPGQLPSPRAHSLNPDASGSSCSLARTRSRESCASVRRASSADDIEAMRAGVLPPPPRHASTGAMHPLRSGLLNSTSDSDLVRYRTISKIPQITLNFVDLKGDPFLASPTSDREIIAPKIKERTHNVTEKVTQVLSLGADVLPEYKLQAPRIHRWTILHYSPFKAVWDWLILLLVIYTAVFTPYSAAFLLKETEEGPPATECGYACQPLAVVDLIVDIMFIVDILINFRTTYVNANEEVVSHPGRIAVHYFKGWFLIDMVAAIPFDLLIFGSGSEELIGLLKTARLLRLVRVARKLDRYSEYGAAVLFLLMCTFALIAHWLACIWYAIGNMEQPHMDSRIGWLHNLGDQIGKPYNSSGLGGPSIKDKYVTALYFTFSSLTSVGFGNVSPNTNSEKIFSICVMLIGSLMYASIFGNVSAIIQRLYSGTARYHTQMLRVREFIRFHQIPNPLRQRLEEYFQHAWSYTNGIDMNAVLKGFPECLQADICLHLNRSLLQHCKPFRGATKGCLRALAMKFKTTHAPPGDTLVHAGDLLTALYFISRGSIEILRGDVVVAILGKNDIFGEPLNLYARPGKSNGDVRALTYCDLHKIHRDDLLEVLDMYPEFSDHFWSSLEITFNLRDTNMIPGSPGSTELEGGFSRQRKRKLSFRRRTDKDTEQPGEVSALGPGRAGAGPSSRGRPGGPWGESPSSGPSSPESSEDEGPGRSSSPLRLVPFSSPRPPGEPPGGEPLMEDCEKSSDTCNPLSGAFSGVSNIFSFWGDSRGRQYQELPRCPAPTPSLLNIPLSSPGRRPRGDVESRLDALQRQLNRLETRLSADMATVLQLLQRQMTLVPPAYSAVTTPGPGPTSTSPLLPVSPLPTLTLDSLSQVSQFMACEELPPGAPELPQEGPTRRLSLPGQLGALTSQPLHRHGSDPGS
Mast/stem cell growth factor receptor Kit, sequence (P10721 whole entry): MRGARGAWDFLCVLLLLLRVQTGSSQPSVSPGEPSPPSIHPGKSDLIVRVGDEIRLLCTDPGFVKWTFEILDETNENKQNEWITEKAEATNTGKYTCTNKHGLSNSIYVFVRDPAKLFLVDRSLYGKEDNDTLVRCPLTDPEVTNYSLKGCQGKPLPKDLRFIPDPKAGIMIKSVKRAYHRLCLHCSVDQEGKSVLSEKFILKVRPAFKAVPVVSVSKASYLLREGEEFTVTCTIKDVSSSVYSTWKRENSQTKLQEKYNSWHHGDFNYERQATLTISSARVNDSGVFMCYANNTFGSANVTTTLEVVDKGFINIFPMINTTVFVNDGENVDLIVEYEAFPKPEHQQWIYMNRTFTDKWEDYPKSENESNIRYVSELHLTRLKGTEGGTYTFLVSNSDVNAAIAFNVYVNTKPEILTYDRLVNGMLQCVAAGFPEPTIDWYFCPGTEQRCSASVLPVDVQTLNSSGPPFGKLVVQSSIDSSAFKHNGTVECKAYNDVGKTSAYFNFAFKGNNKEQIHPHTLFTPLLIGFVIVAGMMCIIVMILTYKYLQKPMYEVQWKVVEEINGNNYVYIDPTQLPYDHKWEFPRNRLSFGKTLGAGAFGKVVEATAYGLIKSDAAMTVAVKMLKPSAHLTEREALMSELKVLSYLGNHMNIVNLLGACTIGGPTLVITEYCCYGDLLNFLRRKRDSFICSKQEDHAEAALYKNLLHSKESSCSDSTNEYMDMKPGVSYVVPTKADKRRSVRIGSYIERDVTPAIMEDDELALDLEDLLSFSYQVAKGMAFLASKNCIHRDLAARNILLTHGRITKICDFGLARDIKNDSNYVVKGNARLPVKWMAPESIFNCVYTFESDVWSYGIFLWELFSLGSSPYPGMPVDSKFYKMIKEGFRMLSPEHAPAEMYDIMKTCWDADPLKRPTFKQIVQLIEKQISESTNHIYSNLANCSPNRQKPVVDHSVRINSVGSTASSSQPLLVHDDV
Receptor-type tyrosine-protein kinase FLT3, sequence (P36888 whole entry): as the sequence (P36888 whole entry) above
Ribosomal protein S6 kinase beta-1, sequence (P23443 whole entry, canonical isoform): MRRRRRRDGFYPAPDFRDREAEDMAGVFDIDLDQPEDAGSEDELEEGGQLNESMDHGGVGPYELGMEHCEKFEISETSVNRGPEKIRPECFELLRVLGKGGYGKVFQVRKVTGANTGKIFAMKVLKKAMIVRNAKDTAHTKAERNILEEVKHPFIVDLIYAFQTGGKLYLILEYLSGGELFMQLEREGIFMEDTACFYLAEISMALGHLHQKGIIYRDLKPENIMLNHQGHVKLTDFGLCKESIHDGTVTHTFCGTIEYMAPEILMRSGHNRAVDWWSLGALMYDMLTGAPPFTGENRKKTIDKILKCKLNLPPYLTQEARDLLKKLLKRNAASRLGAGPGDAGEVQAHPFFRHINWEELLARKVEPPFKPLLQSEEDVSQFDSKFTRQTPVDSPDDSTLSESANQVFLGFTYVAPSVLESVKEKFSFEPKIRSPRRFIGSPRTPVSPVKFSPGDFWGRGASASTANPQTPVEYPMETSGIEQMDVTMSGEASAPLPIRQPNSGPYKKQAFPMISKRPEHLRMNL

CC(C)(O)CC(=O)N1CCc2cc(Nc3ncc(C(F)(F)F)c(N[C@H]4CC[C@@H](N)CC4)n3)ccc2C1
IC50 [1]: < 10 nM | inhibition at 20 µM (hERG (KCNH2)): 2.37% | IC50 [2]: 1870 nM | Ratio IC50 [3]: 1740 | Activity (BaF3): Active | Tmax [4]: 2 h | Cmax [5]: 571 ng/mL | AUC(0-t) [6]: 1570 ng·h/mL | AUC(0-inf) [7]: 1660 ng·h/mL | MRT inf [8]: 5.73 h | IC50 [9]: 91.6 nM | IC50 [10]: > 10000 nM | Ratio IC50 [11]: > 100 | Ratio IC50 [12]: > 100 | Ratio IC50 [13]: > 100 | Ratio IC50 [14]: > 100 | Ratio IC50 [15]: > 100 | Ratio IC50 [16]: > 100 | Ratio IC50 [17]: > 100 | Ratio IC50 [18]: > 100 | Ratio IC50 [19]: > 100 | Ratio IC50 [20]: > 100 | Ratio IC50 [21]: > 100 | IC50 (JeKo-1): 260 nM | inhibition [22]: Dose-Dependent Effect | inhibition [23]: Dose-Dependent Effect | inhibition [24]: Dose-Dependent Effect | inhibition [25]: Dose-Dependent Effect | inhibition [26]: Active | Activity (MV4-11): Dose-Dependent Effect | Activity (MOLM-13): inactive | Activity [27]: Non-Toxic | Activity [28]: Non-Toxic | Activity [29]: Non-Toxic | Activity [30]: Non-Toxic
